≈ marks a conversion by molar mass, not a printed value. Some results are limits rather than exact numbers.

System in the first data set: not listed separately
The data set is described as follows: Aqueous solubility of the compound in pH 7.0 phosphate buffer at 2 mg incubated for 72 hrs by shake flask method. Format: physicochemical.
Settings: not given
One may read the solubility (thermodynamic) as the concentration in solution at equilibrium with solid. Compound `C=C(c1cc(SC)nc(SC)c1)c1ccc2c(c1)c(C#N)cn2C` had a solubility (thermodynamic) at 72 h of 46.3 µg/mL (≈ 132 µM).
The same measure, in the same setting: the same measure for `C=C(c1cccc(N(C)C)c1)c1cc(SC)nc(SC)c1`: 2.4 µg/mL (≈ 7.58 µM); for `CSc1cc(C(=NO)c2cccc(N(C)C)c2)cc(SC)n1`: 14.7 µg/mL (≈ 44.1 µM).
Same read-out and setting: with `COc1ccc(C(=O)c2cc(SC)nc(SC)c2)cc1` the figure was 1.5 µg/mL (≈ 4.91 µM); with `C=C(c1cc(SC)nc(SC)c1)c1ccc2c(c1)c(C(=O)O)cn2C`, 103 µg/mL (≈ 277 µM).
Same read-out and setting: with `C=C(c1cc(Cl)nc(SC)c1)c1ccc2c(ccn2C)c1` the figure was 12.3 µg/mL (≈ 39.1 µM); with `CSc1cc(C(=O)c2ccc(N(C)C)nc2)cc(SC)n1`, 47.1 µg/mL (≈ 147 µM).
In the case of `CSc1cc(C(=NO)c2ccc(N(C)C)cc2)cc(SC)n1`, the thermodynamic solubility at 72 h amounted to 1.1 µg/mL (≈ 3.3 µM).
Same read-out and setting: with `C=C(c1cc(SC)nc(SC)c1)c1ccc2ccccc2c1` the figure was 1.9 µg/mL (≈ 5.87 µM); with `CSc1cc(C(=O)c2ccc(N(C)C)cc2)cc(SC)n1`, 1 µg/mL (≈ 3.14 µM).
`C=C(c1cc(SC)nc(SC)c1)c1ccc2c(c1)c(C=O)cn2C` returned a solubility (thermodynamic) at 72 h of 7.6 µg/mL (≈ 21.4 µM).
Regarding `C=C(c1ccc(OC)cc1)c1cc(SC)nc(SC)c1`, the thermodynamic solubility at 72 h came out at 35.7 µg/mL (≈ 118 µM).
As to `C=C(c1ccc(N(C)C)cc1)c1cc(SC)nc(SC)c1`, the thermodynamic solubility at 72 h came to 6.9 µg/mL (≈ 21.8 µM).
Still for that read-out and setting: with `CSc1cc(C(=NO)c2ccc3c(ccn3C)c2)cc(Cl)n1` the figure was 14.8 µg/mL (≈ 44.6 µM); with `COc1ccc(C(=NO)c2cc(Cl)nc(SC)c2)cc1`, 41.7 µg/mL (≈ 135 µM).
`CSc1cc(C(=O)c2cccc(N(C)C)c2)cc(SC)n1` registered a solubility (thermodynamic) at 72 h of 1.3 µg/mL (≈ 4.08 µM).
Compound `C=C(c1ccc(OC)cc1)c1cc(Cl)nc(SC)c1` yielded a solubility (thermodynamic) at 72 h of 48.9 µg/mL (≈ 168 µM).
The same measure, in the same setting: with `C=C(c1cc(Cl)nc(SC)c1)c1ccc2c(c1)c(C#N)cn2C` the figure was 3.2 µg/mL (≈ 9.42 µM); with `CSc1cc(C(=O)c2ccc3c(c2)c(C=O)cn3C)cc(SC)n1`, 230 µg/mL (≈ 646 µM).

System in the next data set: not listed separately
Put plainly: Inhibition of bovine brain tubulin polymerization incubated for 30 mins by turbidimetric assay.
Settings: not given
Format: tissue-based, Bos taurus.
The IC50 is the midpoint of a concentration-inhibition curve. The compound `COc1ccc(C(=NO)c2cc(SC)nc(SC)c2)cc1` returned an IC50 of 3000 nM.
On the same count and under the same terms, the same measure for `C=C(c1cc(SC)nc(SC)c1)c1ccc2c(c1)c(C#N)cn2C`: 400 nM.
In turn, `C=C(c1cccc(N(C)C)c1)c1cc(SC)nc(SC)c1` gave an IC50 of more than 5000 nM.
Same read-out and setting: the same measure for `CSc1cc(C(=NO)c2cccc(N(C)C)c2)cc(SC)n1`: more than 5000 nM; for `COc1ccc(C(=O)c2cc(SC)nc(SC)c2)cc1`: more than 5000 nM.
The same measure, in the same setting: with `C=C(c1cc(SC)nc(SC)c1)c1ccc2c(c1)c(C(=O)O)cn2C` the figure was 4700 nM; with `C=C(c1cc(Cl)nc(SC)c1)c1ccc2c(ccn2C)c1`, 300 nM.
Same read-out and setting: with `CSc1cc(C(=O)c2ccc(N(C)C)nc2)cc(SC)n1` the figure was more than 5000 nM; with `CSc1cc(C(=NO)c2ccc(N(C)C)cc2)cc(SC)n1`, 2100 nM.
The compound `C=C(c1cc(SC)nc(SC)c1)c1ccc2ccccc2c1` displayed an IC50 of more than 5000 nM.
`CSc1cc(C(=O)c2ccc(N(C)C)cc2)cc(SC)n1` had an IC50 of more than 5000 nM.
Still for that read-out and setting: with `C=C(c1cc(SC)nc(SC)c1)c1ccc2c(c1)c(C=O)cn2C` the figure was 1200 nM.
Compound `C=C(c1ccc(OC)cc1)c1cc(SC)nc(SC)c1` came in with an IC50 of 2000 nM.
Still for that read-out and setting: the same measure for `C=C(c1ccc(N(C)C)cc1)c1cc(SC)nc(SC)c1`: 3800 nM.
Still for that read-out and setting: the same measure for `CSc1cc(C(=NO)c2ccc3c(ccn3C)c2)cc(Cl)n1`: more than 5000 nM; for `COc1ccc(C(=NO)c2cc(Cl)nc(SC)c2)cc1`: 4600 nM.
`CSc1cc(C(=O)c2cccc(N(C)C)c2)cc(SC)n1` came in with an IC50 of more than 5000 nM.
Consider `C=C(c1ccc(OC)cc1)c1cc(Cl)nc(SC)c1`, for which the IC50 worked out at 1500 nM.
On the same count and under the same terms, with `C=C(c1cc(Cl)nc(SC)c1)c1ccc2c(c1)c(C#N)cn2C` the figure was 600 nM.
`CSc1cc(C(=O)c2ccc3c(c2)c(C=O)cn3C)cc(SC)n1`: the IC50 was more than 5000 nM.

For the next data set, the system named is HeLa. Put plainly: Antiproliferative activity against human HeLa cells assessed as inhibition of cell growth after 72 hrs by XTT assay. Format: functional, cell-based.
Settings: not given
In general terms: Tetrazolium dyes change colour on reduction, which living cells bring about.
Regarding `COc1ccc(C(=NO)c2cc(SC)nc(SC)c2)cc1`, the IC50 was 457 nM.
Still for that read-out and setting: with `C=C(c1cc(SC)nc(SC)c1)c1ccc2c(c1)c(C#N)cn2C` the figure was 579 nM.
As to `C=C(c1cccc(N(C)C)c1)c1cc(SC)nc(SC)c1`, the IC50 is not below 10 nM.
The same measure, in the same setting: with `CSc1cc(C(=NO)c2cccc(N(C)C)c2)cc(SC)n1` the figure was not below 10 nM.
Still for that read-out and setting: with `COc1ccc(C(=O)c2cc(SC)nc(SC)c2)cc1` the figure was not below 10000 nM; with `C=C(c1cc(SC)nc(SC)c1)c1ccc2c(c1)c(C(=O)O)cn2C`, not below 10 nM; with `C=C(c1cc(Cl)nc(SC)c1)c1ccc2c(ccn2C)c1`, 176 nM.
On the same count and under the same terms, with `CSc1cc(C(=O)c2ccc(N(C)C)nc2)cc(SC)n1` the figure was not below 10 nM; with `CSc1cc(C(=NO)c2ccc(N(C)C)cc2)cc(SC)n1`, 269 nM; with `C=C(c1cc(SC)nc(SC)c1)c1ccc2ccccc2c1`, not below 10 nM.
As to `CSc1cc(C(=O)c2ccc(N(C)C)cc2)cc(SC)n1`, the IC50 turned out to be 652 nM.
Still for that read-out and setting: the same measure for `C=C(c1cc(SC)nc(SC)c1)c1ccc2c(c1)c(C=O)cn2C`: 64 nM; for `C=C(c1ccc(OC)cc1)c1cc(SC)nc(SC)c1`: 399 nM; for `C=C(c1ccc(N(C)C)cc1)c1cc(SC)nc(SC)c1`: 328 nM.
Still for that read-out and setting: the same measure for `CSc1cc(C(=NO)c2ccc3c(ccn3C)c2)cc(Cl)n1`: 365 nM.
As for `COc1ccc(C(=NO)c2cc(Cl)nc(SC)c2)cc1`, the IC50 was 518 nM.
As to `CSc1cc(C(=O)c2cccc(N(C)C)c2)cc(SC)n1`, the IC50 is not below 10 nM.
On to `C=C(c1ccc(OC)cc1)c1cc(Cl)nc(SC)c1`, for which the IC50 is 628 nM.
Take `C=C(c1cc(Cl)nc(SC)c1)c1ccc2c(c1)c(C#N)cn2C`: the IC50 came out at 158 nM.
`CSc1cc(C(=O)c2ccc3c(c2)c(C=O)cn3C)cc(SC)n1`: the IC50 was not below 10 nM.

A further data set deals with HL-60. Put plainly: Antiproliferative activity against human HL-60 cells assessed as inhibition of cell growth after 72 hrs by XTT assay. Particulars: HL-60, 72 h. Type of data set: functional, cell-based.
`COc1ccc(C(=NO)c2cc(SC)nc(SC)c2)cc1`: the IC50 is 299 nM.
Still for that read-out and setting: the same measure for `C=C(c1cc(SC)nc(SC)c1)c1ccc2c(c1)c(C#N)cn2C`: 604 nM; for `C=C(c1cccc(N(C)C)c1)c1cc(SC)nc(SC)c1`: not below 10 nM.
Same read-out and setting: with `CSc1cc(C(=NO)c2cccc(N(C)C)c2)cc(SC)n1` the figure was not below 10 nM.
Turning to `COc1ccc(C(=O)c2cc(SC)nc(SC)c2)cc1`, the IC50 was not below 10000 nM.
The same measure, in the same setting: with `C=C(c1cc(SC)nc(SC)c1)c1ccc2c(c1)c(C(=O)O)cn2C` the figure was not below 10 nM; with `C=C(c1cc(Cl)nc(SC)c1)c1ccc2c(ccn2C)c1`, 416 nM.
Same read-out and setting: the same measure for `CSc1cc(C(=O)c2ccc(N(C)C)nc2)cc(SC)n1`: not below 10 nM; for `CSc1cc(C(=NO)c2ccc(N(C)C)cc2)cc(SC)n1`: 213 nM.
Still for that read-out and setting: with `C=C(c1cc(SC)nc(SC)c1)c1ccc2ccccc2c1` the figure was not below 10 nM; with `CSc1cc(C(=O)c2ccc(N(C)C)cc2)cc(SC)n1`, 435 nM.
`C=C(c1cc(SC)nc(SC)c1)c1ccc2c(c1)c(C=O)cn2C`: the IC50 was 303 nM.
Same read-out and setting: the same measure for `C=C(c1ccc(OC)cc1)c1cc(SC)nc(SC)c1`: 306 nM; for `C=C(c1ccc(N(C)C)cc1)c1cc(SC)nc(SC)c1`: 486 nM.
Still for that read-out and setting: the same measure for `CSc1cc(C(=NO)c2ccc3c(ccn3C)c2)cc(Cl)n1`: 257 nM; for `COc1ccc(C(=NO)c2cc(Cl)nc(SC)c2)cc1`: 613 nM; for `CSc1cc(C(=O)c2cccc(N(C)C)c2)cc(SC)n1`: not below 10 nM.
For `C=C(c1ccc(OC)cc1)c1cc(Cl)nc(SC)c1`, the IC50 is 464 nM.
On the same count and under the same terms, with `C=C(c1cc(Cl)nc(SC)c1)c1ccc2c(c1)c(C#N)cn2C` the figure was 74 nM.
As to `CSc1cc(C(=O)c2ccc3c(c2)c(C=O)cn3C)cc(SC)n1`, the IC50 is not below 10 nM.

In a further data set the test system is HT-29. The data set is described as follows: Antiproliferative activity against human HT-29 cells assessed as inhibition of cell growth after 72 hrs by XTT assay. Format: functional, cell-based. To be noted: HT-29, 72 h.
On to `COc1ccc(C(=NO)c2cc(SC)nc(SC)c2)cc1`, for which the IC50 came out at 292 nM.
On to `C=C(c1cc(SC)nc(SC)c1)c1ccc2c(c1)c(C#N)cn2C`, for which the IC50 worked out at 587 nM.
Still for that read-out and setting: the same measure for `C=C(c1cccc(N(C)C)c1)c1cc(SC)nc(SC)c1`: not below 10 nM.
With `CSc1cc(C(=NO)c2cccc(N(C)C)c2)cc(SC)n1`, the IC50 is not below 10 nM.
The same measure, in the same setting: the same measure for `COc1ccc(C(=O)c2cc(SC)nc(SC)c2)cc1`: not below 10000 nM; for `C=C(c1cc(SC)nc(SC)c1)c1ccc2c(c1)c(C(=O)O)cn2C`: not below 10 nM.
Same read-out and setting: with `C=C(c1cc(Cl)nc(SC)c1)c1ccc2c(ccn2C)c1` the figure was 511 nM.
The same measure, in the same setting: with `CSc1cc(C(=O)c2ccc(N(C)C)nc2)cc(SC)n1` the figure was not below 10 nM; with `CSc1cc(C(=NO)c2ccc(N(C)C)cc2)cc(SC)n1`, 781 nM.
`C=C(c1cc(SC)nc(SC)c1)c1ccc2ccccc2c1`: the IC50 is not below 10 nM.
Same read-out and setting: the same measure for `CSc1cc(C(=O)c2ccc(N(C)C)cc2)cc(SC)n1`: 787 nM.
The same measure, in the same setting: with `C=C(c1cc(SC)nc(SC)c1)c1ccc2c(c1)c(C=O)cn2C` the figure was 573 nM; with `C=C(c1ccc(OC)cc1)c1cc(SC)nc(SC)c1`, 550 nM; with `C=C(c1ccc(N(C)C)cc1)c1cc(SC)nc(SC)c1`, 928 nM.
`CSc1cc(C(=NO)c2ccc3c(ccn3C)c2)cc(Cl)n1`: the IC50 was not below 10 nM.
The same measure, in the same setting: the same measure for `COc1ccc(C(=NO)c2cc(Cl)nc(SC)c2)cc1`: not below 10000 nM; for `CSc1cc(C(=O)c2cccc(N(C)C)c2)cc(SC)n1`: not below 10 nM.
For `C=C(c1ccc(OC)cc1)c1cc(Cl)nc(SC)c1`, the IC50 turned out to be 485 nM.
On to `C=C(c1cc(Cl)nc(SC)c1)c1ccc2c(c1)c(C#N)cn2C`, for which the IC50 is 278 nM.
Take `CSc1cc(C(=O)c2ccc3c(c2)c(C=O)cn3C)cc(SC)n1`: the IC50 was not below 10 nM.

The values above are taken from ChEMBL document CHEMBL4732128, “Methylsulfanylpyridine based diheteroaryl isocombretastatin analogs as potent anti-proliferative agents” (Eur J Med Chem, 2021).
